The values that follow come from patent US11872230B2, “Method of treating a methionine-dependent cancer” (Agency for Science, Technology and Research, priority 2018, dated 2024).

Test [1] concerns histone methylation in TS cells. The test is described as follows: Western blot of methylated histones in TS cells. Type of test: cell-based, human. The protocol: (§1) 1.5×10^6 cells were lysed in Llaemli-SDS buffer and then sonicated. Total protein concentration was measured by Bradford assay. Total cell lysates were separated by SDS-PAGE and transferred onto nitrocellulose, followed by blocking in 5% (v/v) milk in Tris-buffered saline in Tween 20, probing with the indicated antibodies and visualized by chemiluminescence (Roche). Primary antibodies used were anti-β-Actin (sc-47778), anti-GAPDH (sc-32233) from Santa Cruz: anti-GLDC (ab97625), anti-H3 (ab1791), anti-H3 (dimethylK36) (ab9049), anti-MAT2A (ab77471), anti-MTR (ab9209), anti-H3 (trimethylK79) (ab2621), anti-MTHFR (ab125707), anti-MTAP (ab ab55517) from Abcam; anti-H3(trimethyl K4) (39159), anti-H3(trimethyl K27)(39155), anti-H3(trimethylK36)(61101) and anti-H3(trimethylK9)(39765) from Active Motif; anti-β-catenin (BD610154) from BD Biosciences; anti-SHMT2 (HPA020549) and anti-SAHH (WH0000191M8) from Sigma; anti-Symmetric Di-Methyl Arginine Motif (13222) from CST.
(§2) To evaluate the methionine cycle as a therapeutic target in lung TICs, small molecule inhibitors that target enzymes within this pathway were employed, mimicking the effects of short-term methionine starvation (FIG. 5a). two inhibitors known to perturb methionine cycle activity and cellular methylation levels: 1) MAT2A inhibitor, FIDAS5; and 2) SAHH inhibitor, D9, which is an analog of DZNep. In a manner similar to amino acid starvation studies, TS cells were exposed transiently to the compounds for 48 h in culture and were immediately used for downstream tumorigenesis assays.
A general note: In western blotting, separated proteins are transferred to a membrane and probed.

The test system of test [2] is TS cells (lung TICs). The test is described as follows: Tumor formation in NSG mice after transplantation of pre-treated TS cells. Type of test: in vivo.
Source text: (§3) 5×10^5 single cells were mixed in a 1:1 mixture of serum free DMEM/F12 and Matrigel (BD) and injected subcutaneously into the flanks of 4-6 week old male and female NOD.Cg-Prkdc^scid Il2rg^tm1wjl SzJ (Jackson Laboratories). About 6 weeks later, or when tumor sizes exceed 2 cm in length, mice were sacrificed and tumors harvested for analysis. All animal experiments were approved by the Agency for Science Technology and Research Singapore—Biological Resource Centre. Mice were randomized by sex.
as §2

Test [3] deals with histone methylation in GLDC KD cells. The test is described as follows: Western blot of methylated histones in GLDC KD cells with metabolite supplementation. Type of test: cell-based, human. To be noted: SAM 500 μM 48 h, formate 0.5 mM, methyl-THF 20 μM or adenosine 200 μM. The protocol:
(§4) 1.5×10^6 cells were lysed in Llaemli-SDS buffer and then sonicated. Total protein concentration was measured by Bradford assay. Total cell lysates were separated by SDS-PAGE and transferred onto nitrocellulose, followed by blocking in 5% (v/v) milk in Tris-buffered saline in Tween 20, probing with the indicated antibodies and visualized by chemiluminescence (Roche).

For test [4], the system named is TS cells (lung TICs). The test is described as follows: Soft agar colony formation of pre-treated TS cells. Type of test: cell-based, human. How it is done: 2.5 ml lower layer of 0.7% agar in complete DMEM/F12 with 10% fetal bovine serum was placed in 3 wells of a 6 well dish, and permitted to solidify. 2×10^4 Cells (for 3 wells) were then suspended in a 2 ml layer of 0.35% agar in complete DMEM/F12 with 10% fetal bovine serum and layered on top of the bottom layer. Colonies were stained with crystal violet and counted after approximately 2 months.
as §2

Test [5] deals with GLDC KD cells. Kind of test: Tumor mass in NSG mice after transplantation of SAM supplemented GLDC KD cells. Type of test: in vivo. To be noted: GLDC KD cells supplemented with SAM for 48 hours before xenografting.
Source text: as §3

For test [6], the system named is MTHFR abundance in GLDC KD cells. Kind of test: Western blot of MTHFR in SAM supplemented GLDC KD cells. Type of test: cell-based, human. How it is done:
as §1

The subject of test [7] is TS cells (lung TICs). Kind of test: Intraperitoneal administration to NSG mice subcutaneously implanted with lung TICs. Type of test: in vivo. To be noted: cisplatin 4 mg/kg i.p., three days, 6 weeks.
Source text: as §3
Since FIDAS5 appeared to more specifically disrupt the methionine cycle and inhibit cellular methylation activities compared to D9, it was sought to test whether its systemic delivery could impact the tumorigenic potential of TS cells. These highly tumorigenic cells were first subcutaneously implanted into NSG mice and FIDAS5 (40 mg/kg) or corn oil carrier was immediately administered via intraperitoneal injection for three consecutive days. After 6 weeks, mice transiently treated with FIDAS5 produced tumors that were much smaller than carrier-treated controls. […] To exclude the possibility of general cytotoxicity associated with the inhibitor on TS cells, TS cell-implanted NSG mice were treated with cisplatin (4 mg/kg), a frontline chemotherapeutic agent that broadly target bulk cancer cells in NSCLC tumors, in the same manner (FIG. 5i). […]

The test system of test [8] is methylated histones in TS cells. Kind of test: Protein turnover experiment (cycloheximide) of methylated histones in TS cells. Type of test: cell-based, human. The following applies: MG132 10 μM with 20 μg/ml cycloheximide. How it is done:
as §1
5×10^5 cells were treated with 20 μg/ml of cycloheximide (Sigma) and harvested for immunoblotting at indicated time points thereafter.

In test [9] the test system is ATP levels in knockdown TS cells. The test is described as follows: Steady-state ATP levels (CellTiter-Glo) in GLDC/SHMT2 knockdown TS cells. Type of test: cell-based, human. The following applies: GLDC (or SHMT2) knockdown cells; formate 0.5 mM or adenosine 200 μM. The protocol: (§5) Cells were seeded into 96-well plates at a density of 1,000 cells/well at 10 replicate wells per condition. Cells were then left to equilibrate at 37° C. for 3 h. ATP was then quantified using the CellTiter-GLo reagent (Promega). 5 biological replicates were used.
In general terms: Cellular ATP, detected with luciferase, serves as a proxy for viable cell number.

Test [10] deals with ATP levels in Adh cells. Kind of test: Steady-state ATP levels (CellTiter-Glo) in Adh cells. Type of test: cell-based, human. To be noted: formate 0.5 mM. How it is done:
as §5

In test [11] the test system is histone methylation in MTHFR overexpressing+GLDC KD cells. The test is described as follows: Western blot of methylated histones in MTHFR overexpressing+GLDC KD cells. The following applies: formate 0.5 mM. Type of test: cell-based, human. The protocol:
as §4

The mark [12] stands for this setting: methionine-starved TS cells (48 h) supplemented with SAM 500 μM or homocysteine 250 μM.
Where [13] appears, read: TS cells, 500 μM SAM in the presence of FIDAS5.

Entries after “also recorded” stand apart in the source; their conditions may differ. Where a SMILES comes first, the peptide text is derived from it. The star is where a group is joined. Cbz = O=C(OCc1ccccc1)*

For the compound `N[C@@H](CCS)C(=O)O` [Homocysteine, homocysteine], the histone methylation result in test [1] (setting [12]) is reported as “failed to rescue”.

Take `C[S+](CC[C@H](N)C(=O)O)C[C@H]1O[C@@H](n2cnc3c(N)ncnc32)[C@H](O)[C@@H]1O` (stereo partly drawn) [SAM, S-adenosyl methionine]: in test [2] (TS cells, 500 μM SAM in the presence of FIDAS5, transplanted into NSG mice), the tumor-formation capability entry is recorded as “rescued, to a large extent”. Moreover, in test [2] (methionine starvation conditions, SAM 500 μM supplemented, NSG mice), the tumor-forming capability result is listed as “rescued”. The histone methylation result in [3] is “reestablishment of histone methylation”; in [1] (setting [13]), “rescued, to a large extent”; in [1] (setting [12]), “restored”. In addition, the colony-formation capability result in test [4] (setting [13]) is on record as “rescued, to a large extent”. The colony-forming capability result in test [4] (methionine starvation conditions, SAM 500 μM supplemented) is given as “rescued”. Besides, the tumorigenic potential entry in test [5] is reported as “incomplete rescue”. Moreover, the MTHFR abundance result in test [6] is listed as “recovery of MTHFR abundance”.

Regarding `N.N.[Cl][Pt][Cl]` [Cisplatin, cis-Diammineplatinum(II) dichloride], the tumor growth result in [7] was “unable to halt tumor growth”.

In the case of `CC(C)C[C@@H](C=O)NC(=O)[C@H](CC(C)C)NC(=O)[C@H](CC(C)C)NC(=O)OCc1ccccc1` [MG132] (Cbz-Leu-Leu-Leu-aldehyde), the “high turnover of methylated histones” value in [8] is given as “rescued”.

In the case of `O=C[O-].[Na+]` [formate, Sodium formate], the figures for the histone methylation entry in test [3] and in test [11] were “did not rescue” and “fully rescued”, respectively. For the same compound, in test [9], the “steady state ATP levels” value is reported as “could be rescued; also recorded: rescued ATP levels”. In test [10], the ATP levels result is “could not rescue”.

Turning to `Nc1ncnc2c1ncn2[C@@H]1O[C@H](CO)[C@@H](O)[C@H]1O` [adenosine, Adenosine], in [3], the histone methylation result was “did not rescue”. The “steady state ATP levels” value in test [9] is “rescued ATP levels”.
